# Measured values taken from patent US6855812B2, “P-glycoproteins and uses thereof” (Becton, Dickinson and Company, priority 2001, dated 2005).
# Tested on: rhesus monkey PGP
# Experiment: Polarization of vinblastine transport in Transwells, rhesus monkey PGP transfected LLC-PK1 cell monolayers
# Conditions: PGP transfected LLC-PK1 cells, compared with control cells; vinblastine 0.1 μM
# Text: Rhesus monkey PGP cDNA (SEQ ID NO:1) is introduced into a clonal population of LLC-PK1 cells in a vector that confers resistance to hygromycin B. LLC-PK1 cells are obtained from the American Type Culture Collections and are propagated in Medium 199 supplemented to 7% with fetal bovine serum. LLC-PK1 cells are recloned prior to transfection in order to assure homogeneity of the cell population. Briefly, rhesus monkey PGP cDNA is incorporated into the p222CMV vector. […] The PGP cDNA is under the control of the cytomegalovirus (CMV) immediate early promoter. The vector confers resistance to hygromycin B. Cells (in 0.4 mL) and DNA (10 to 20 μg) were transfected by electroporation using a BTX Electro cell manipulator model 600 using a 2 mm gap cell, 100V, 2500 μF capacitance and 72 ohm resistance. […] Expression of PGP is measured by the polarization of vinblastine (0.1 μM) transport in Transwells™.
# LLC-PK1 cell based transport studies are conducted in 24 well Transwells™ (Corning Costar, Catalog number 3415). […] Transport is measured under sink conditions in both the apical to basolateral (A to B) and basolateral to apical (B to A) directions. […] Quantitation of the amount of compound transported is by liquid scintillation counting (vinblastine) or HPLC with UV or mass spectrometric detection.
# Functional expression of rhesus monkey PGP is measured by the polarization of transport of vinblastine.
smiles,measurement,value
CC[C@]1(O)C[C@@H]2CN(CCc3c([nH]c4ccccc34)[C@@](C(=O)OC)(c3cc4c(cc3OC)N(C)[C@H]3[C@@](O)(C(=O)OC)[C@H](OC(C)=O)[C@]5(CC)C=CCN6CC[C@]43[C@@H]65)C2)C1 [vinblastine],B to A/A to B ratio (polarization of transport),much higher ratio
